Reference: the NIST ThermoML archive (doi:10.1007/s10765-010-0861-2)
± gives the expanded uncertainty stated by the source.

What was measured:
[1] = 101.33 kPa, Liquid; for mass density: Pycnometric method
[2] = xn = mol fraction of the nth substance listed; details: 308.15 K, 101 kPa, Liquid, Frequency=2 MHz

O=C1CCCN1 [2-pyrrolidinone]
[1]
Details | mass density [kg/m3] | speed of sound [m/s]
298.15 K | 1107.26 ± 1.6 | –
308.15 K | – | 1603 ± 7

CCCO [propan-1-ol]
[1], 298.15 K
Details | mass density [kg/m3] | speed of sound [m/s]
– | 799.28 ± 0.9 | 1188 ± 6

Cc1ccccc1 [toluene]
[1], 298.15 K
Details | mass density [kg/m3] | speed of sound [m/s]
– | 862.23 ± 1 | 1305 ± 6

Cc1ccccc1 [toluene] + CCCO
[2]
Details | speed of sound [m/s]
x1 = 0.0724 | 1193 ± 6
x1 = 0.1494 | 1199 ± 6
x1 = 0.2314 | 1204 ± 6
x1 = 0.319 | 1209 ± 6
x1 = 0.3586 | 1211 ± 6
x1 = 0.4352 | 1216 ± 6
x1 = 0.5131 | 1220 ± 6
x1 = 0.5724 | 1224 ± 6
x1 = 0.6211 | 1227 ± 6
x1 = 0.6846 | 1231 ± 6
x1 = 0.7376 | 1235 ± 6
x1 = 0.7829 | 1239 ± 6
x1 = 0.8635 | 1247 ± 6
x1 = 0.9243 | 1253 ± 6

c1ccccc1 [benzene]
[1], 298.15 K
Details | mass density [kg/m3] | speed of sound [m/s]
– | 873.62 ± 1.1 | 1298 ± 6

c1ccccc1 [benzene] + CCCO
[2]
Details | speed of sound [m/s]
x1 = 0.0852 | 1192 ± 6
x1 = 0.1733 | 1196 ± 6
x1 = 0.2644 | 1200 ± 6
x1 = 0.3059 | 1201 ± 6
x1 = 0.3586 | 1203 ± 6
x1 = 0.3995 | 1204 ± 6
x1 = 0.4561 | 1206 ± 6
x1 = 0.5274 | 1208 ± 6
x1 = 0.582 | 1210 ± 6
x1 = 0.6618 | 1213 ± 6
x1 = 0.7267 | 1216 ± 6
x1 = 0.7703 | 1219 ± 6
x1 = 0.883 | 1233 ± 6
x1 = 0.9335 | 1242 ± 6
